Test results reported in patent US20100298370A1, “BENZOTHIAZOLYL THIENOPYRIDINE DERIVATIVES AND USES THEREOF” (priority 2006, published 2010).

What follows are compounds tested against T1, VEGF binding to heparin (HS-GAG) (Homo sapiens, UniProt P15692) (assay: In vitro VEGF to HS-GAG binding assay (ELISA, heparin-BSA coated plate)). Settings: not given.
T1 construct: purchased Research and Development Systems
T1 sequence (P15692 27-191 isoform P15692-4): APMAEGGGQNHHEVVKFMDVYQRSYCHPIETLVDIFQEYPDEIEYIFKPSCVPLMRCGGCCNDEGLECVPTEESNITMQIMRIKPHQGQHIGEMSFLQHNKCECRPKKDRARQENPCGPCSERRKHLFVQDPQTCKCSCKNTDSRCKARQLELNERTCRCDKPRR
Source text: An in vitro assay was used to assess the ability of test compounds of general formulas I and II to inhibit the interaction of VEGF with HS-GAGs. The assay was designed to for determine the concentration required for 50% inhibition (IC-50) for each specific compound. The test compounds were purchased from Life Chemicals Ltd. (Kiev, Ukraine), and the GAG used was heparin (heparin grade I-A; Sigma) conjugated to bovine serum albumin (Sigma) and diluted 1:200 in phosphate-buffered saline (PBS; pH 7.3). The heparin was added to a 96-well polystyrene ELISA plate (NUNC; 0.1 ml per well) and incubated overnight at 4° C. Following the incubation, the plate was washed thoroughly, by immersion, with de-ionized water and then with PBS (pH 7.3) containing Tween 20 (Sigma, 0.05%). The ELISA plate was then blocked with BSA (ICN, 3%, 200 μl per well) for 1 hour at room temperature. Following blocking, the plate was washed with de-ionized water, and then twice with PBS (pH 7.3) containing Tween 20. Recombinant human VEGF (Research and Development Systems) dissolved in PBS supplemented with BSA (0.1%) was added to the ELISA plate. The test compounds were dissolved in DMSO (MERCK), diluted in PBS and added to the wells at concentrations ranging from 0.01 to 200 μM to obtain a final volume 100 μl per well, and incubated for 60 minutes at room temperature with shaking. Following incubation, the plate was washed with de-ionized water and PBS (pH 7.3) containing Tween 20. Anti-human VEGF (1:2000; Research and Development Systems) diluted in PBS supplemented with BSA (1%) was added to the ELISA plate (100 per well) and incubated for 60 minutes at room temperature with shaking. Following incubation, the plate was washed with de-ionized water and then with PBS (pH 7.3) containing Tween 20. Streptavidin-HRP (1:200; Research and Development Systems Cat. No. DY998) diluted in PBS supplemented with BSA (1%) was added to the ELISA plate (100 per well) and incubated for 20 minutes at room temperature with shaking. The plate was then washed with de-ionized water and twice with PBS (pH 7.3) containing Tween 20. The peroxidase substrate chromogen tetramethyl benzidine (TMB; Dako) was added (100 μl per well) to the ELISA plate and incubated at room temperature. After 15 minutes, ELISA Stop Solution (hydrochloric acid 1N, sulfuric acid 3N) was added (100 μl per well) to stop the peroxidase catalyzed colorimetric reaction. The Optical Density (OD) of the samples was measured at 450 nm using an ELISA plate reader (Dynatech MR5000). Data were analyzed with Graphpad Prism software and IC-50 values were determined.
Percent inhibition at 30 μM concentration is shown and for selected compounds IC-50 was established.
`CCN1CCc2c(sc(NC(=O)CCSc3ccccc3)c2-c2nc3ccccc3s2)C1` [Compound 29, N-[3-(2-benzothiazolyl)-4,5,6,7-tetrahydro-6-ethylthieno[2,3-c]pyridin-2-yl]-3-(phenylthio)propanamide] showed an IC50 of 1300 nM. In the case of `COC(=O)c1ccc(C(=O)Nc2sc3c(c2-c2nc4ccccc4s2)CCN(C(C)C)C3)cc1` [Compound 20], the IC50 is reported as 240 nM. In the case of `CN1CCc2c(sc(NC(=O)c3ccc4ncsc4c3)c2-c2nc3ccccc3s2)C1` [Compound 34, N-[3-(2-benzothiazolyl)-4,5,6,7-tetrahydro-6-methylthieno[2,3-c]pyridin-2-yl]-6-benzothiazolecarboxamide], the IC50 is reported as 200 nM. Work on `CC(=O)c1ccc(C(=O)Nc2sc3c(c2-c2nc4ccccc4s2)CCN(Cc2ccccc2)C3)cc1` [Compound 8, N-[3-(2-benzothiazolyl)-4,5,6,7-tetrahydro-6-phenylmethylthieno[2,3-c]pyridin-2-yl]-4-acetylbenzamide] yielded an IC50 of 400 nM.

Same assay, conditions: 30 μM
`CCN1CCc2c(sc(NC(=O)CCSc3ccccc3)c2-c2nc3ccccc3s2)C1` [Compound 29, N-[3-(2-benzothiazolyl)-4,5,6,7-tetrahydro-6-ethylthieno[2,3-c]pyridin-2-yl]-3-(phenylthio)propanamide] gave an inhibition at 30 µM of 72%. Compound `CCN1CCc2c(sc(NC(=O)c3ccc(Cl)cc3)c2-c2nc3ccccc3s2)C1` [Compound 10, N-[3-(2-benzothiazolyl)-4,5,6,7-tetrahydro-6-ethylthieno[2,3-c]pyridin-2-yl]-(4-chloro)benzamide] has an inhibition at 30 µM of 71%. `O=C(Nc1sc2c(c1-c1nc3ccccc3s1)CCN(Cc1ccccc1)C2)c1ccc(Br)s1` [Compound 24, N-[3-(2-benzothiazolyl)-4,5,6,7-tetrahydro-6-phenylmethylthieno[2,3-c]pyridin-2-yl]-2-(5-bromo)thiophenecarboxamide] was tested, and the inhibition at 30 µM was 52%. In the case of `CC(C)N1CCc2c(sc(NC(=O)CN3C(=O)CCC3=O)c2-c2nc3ccccc3s2)C1` [Compound 31, N-[3-(2-benzothiazolyl)-4,5,6,7-tetrahydro-6-(methylethyl)thieno[2,3-c]pyridin-2-yl]-(2,5-dioxo-1-pyrrolidine)acetamide], the inhibition at 30 µM is reported as 37%. `CCOC(=O)N1CCc2c(sc(NC(=O)c3ccccc3)c2-c2nc3ccccc3s2)C1` [Compound 35, N-[3-(2-benzothiazolyl)-4,5,6,7-tetrahydro-6-ethoxycarbonylthieno[2,3-c]pyridin-2-yl]benzamide] showed an inhibition at 30 µM of 37%. `Cc1ccc(S(=O)(=O)CC(=O)Nc2sc3c(c2-c2nc4ccccc4s2)CCN(C)C3)cc1` [Compound 39, N-[3-(2-benzothiazolyl)-4,5,6,7-tetrahydro-6-methylthieno[2,3-c]pyridin-2-yl]-(4-methylphenylsulfonyl)acetamide] gave an inhibition at 30 µM of 42%. Compound `CC(C)N1CCc2c(sc(NC(=O)CCc3ccccc3)c2-c2nc3ccccc3s2)C1` [Compound 18, N-[3-(2-benzothiazolyl)-4,5,6,7-tetrahydro-6-(1-methylethyl)thieno[2,3-c]pyridin-2-yl]-3-benzenepropaneamide] has an inhibition at 30 µM of 44%. Work on `O=C(Nc1sc2c(c1-c1nc3ccccc3s1)CCN(Cc1ccccc1)C2)C1COc2ccccc2O1` (stereo not shown) [Compound 33, N-[3-(2-benzothiazolyl)-4,5,6,7-tetrahydro-6-phenylmethylthieno[2,3-c]pyridin-2-yl]-2,3-dihydro-1,4-benzodioxin-2-carboxamide] yielded an inhibition at 30 µM of 50%. `COc1ccc(C(=O)Nc2sc3c(c2-c2nc4ccccc4s2)CCN(Cc2ccccc2)C3)c(OC)c1` [Compound 13, N-[3-(2-benzothiazolyl)-4,5,6,7-tetrahydro-6-phenylmethylthieno[2,3-c]pyridin-2-yl]-(2,4-dimethoxy)benzamide] gave an inhibition at 30 µM of 64%. With `COc1cc2ccccc2cc1C(=O)Nc1sc2c(c1-c1nc3ccccc3s1)CCN(C)C2` [Compound 15, N-[3-(2-benzothiazolyl)-4,5,6,7-tetrahydro-6-methylthieno[2,3-c]pyridin-2-yl]-3-methoxy-2-naphthalenecarboxamide] the inhibition at 30 µM was 43%. Compound `CN1CCc2c(sc(NC(=O)CCSc3ccc(F)cc3)c2-c2nc3ccccc3s2)C1` [Compound 12, N-[3-(2-benzothiazolyl)-4,5,6,7-tetrahydro-6-methylthieno[2,3-c]pyridin-2-yl]-3-[(4-fluorophenyl)thio]propanamide] has an inhibition at 30 µM of 62%. In the case of `COC(=O)c1ccc(C(=O)Nc2sc3c(c2-c2nc4ccccc4s2)CCN(C(C)C)C3)cc1` [Compound 20], the inhibition at 30 µM is reported as 77%. In the case of `Cc1ccc(CC(=S)Nc2sc3c(c2-c2nc4ccccc4s2)CCN(C)C3)cc1` [Compound 40, N-[3-(2-benzothiazolyl)-4,5,6,7-tetrahydro-6-methylthieno[2,3-c]pyridin-2-yl]-(4-methylphenyl)thioacetamide], the inhibition at 30 µM is reported as 41%. `CC(C)N1CCc2c(sc(NC(=O)C3CCCCC3)c2-c2nc3ccccc3s2)C1` [Compound 26, N-[3-(2-benzothiazolyl)-4,5,6,7-tetrahydro-6-(1-methylethyl)thieno[2,3-c]pyridin-2-yl]-cyclohexylcarboxamide] showed an inhibition at 30 µM of 36%. Compound `CN1CCc2c(sc(NC(=O)c3ccc4ncsc4c3)c2-c2nc3ccccc3s2)C1` [Compound 34, N-[3-(2-benzothiazolyl)-4,5,6,7-tetrahydro-6-methylthieno[2,3-c]pyridin-2-yl]-6-benzothiazolecarboxamide] has an inhibition at 30 µM of 77%. `O=C(Nc1sc2c(c1-c1nc3ccccc3s1)CCN(Cc1ccccc1)C2)c1cc(Cl)sc1Cl` [Compound 22, N-[3-(2-benzothiazolyl)-4,5,6,7-tetrahydro-6-phenylmethylthieno[2,3-c]pyridin-2-yl]-3-(2,5-dichloro)thiophenecarboxamide] gave an inhibition at 30 µM of 39%. In the case of `CN1CCc2c(sc(NC(=O)c3ccco3)c2-c2nc3ccccc3s2)C1` [Compound 25, N-[3-(2-benzothiazolyl)-4,5,6,7-tetrahydro-6-methylthieno[2,3-c]pyridin-2-yl]-2-furancarboxamide], the inhibition at 30 µM is reported as 55%. `CN1CCc2c(sc(NC(=O)CN3C(=O)c4ccccc4C3=O)c2-c2nc3ccccc3s2)C1` [Compound 30, N-[3-(2-benzothiazolyl)-4,5,6,7-tetrahydro-6-methylthieno[2,3-c]pyridin-2-yl]-1,3-dihydro-1,3-dioxo-2H-isoindole-2-acetamide] was tested, and the inhibition at 30 µM was 29%. With `CC(C)Oc1ccc(C(=O)Nc2sc3c(c2-c2nc4ccccc4s2)CCN(C)C3)cc1` [Compound 19, N-[3-(2-benzothiazolyl)-4,5,6,7-tetrahydro-6-methylthieno[2,3-c]pyridin-2-yl]-4-(1-methylethoxy)benzamide] the inhibition at 30 µM was 49%. Compound `CC(=O)c1ccc(C(=O)Nc2sc3c(c2-c2nc4ccccc4s2)CCN(Cc2ccccc2)C3)cc1` [Compound 8, N-[3-(2-benzothiazolyl)-4,5,6,7-tetrahydro-6-phenylmethylthieno[2,3-c]pyridin-2-yl]-4-acetylbenzamide] has an inhibition at 30 µM of 82%.

The compounds below were run on oxazolone-induced ear swelling in BALB/c mice (assay: Delayed-type hypersensitivity (DTH), oxazolone mouse ear-swelling test). Settings: dexamethasone positive control, i.p. (10 mg/kg per FIG. 2).
Type: in vivo
Procedure: FIG. 2 is a graph showing the anti-inflammatory activity of Compounds 1, 2, 4, 5, 6 administered to mice orally at 50 mg/kg in a model of delayed-type hypersensitivity (DTH) (11-13 mice per group). The results for dexamethasone (10 mg/kg i.p.), a steroid positive control, are also shown. The y-axis represents difference in ear thickness in mm compared to control. The results were statistically evaluated by Student's t-test and statistical significance is indicated by one, two or three stars ([…]).
BALB/c mice (Velaz, Prague, Czech Republic; 8 week-old; 10-15 animals per group) were sensitized by topical application of a 2% oxazolone (4-ethoxymethylene-2-phenyl-2-oxazolin-5-one; Sigma, St Louis, Mo.) solution in acetone/olive oil (4:1 vol/vol) to a shaved abdomen area (50 μl) and to each paw (5 μl)(Lange-Asschenfeldt et al., 2002). Topical oxazolone administration induces immunomodulatory activity. Five days after sensitization, right ears were challenged by topical application of 10 μl of a 1% oxazolone solution, whereas left ears were treated with vehicle alone. Test compounds were administered 1 hour prior to challenge. The extent of inflammation was measured 24 hours and 48 hours after challenge, using the mouse ear-swelling test. Animals were numbered (tail marking) and weighed and the thickness of both ears was recorded with a constant-loading dial micrometer (Mitutoyo, Tokyo). The unpaired Student t-test was used for statistical analyses. Test compounds were administered per os at 50 mg/kg as a suspension with 0.5% methylcellulose. The vehicle control group received the same volume of 0.5% methylcellulose.
For `C[C@@H]1C[C@H]2[C@@H]3CCC4=CC(=O)C=C[C@]4(C)[C@@]3(F)[C@@H](O)C[C@]2(C)[C@@]1(O)C(=O)CO` [dexamethasone, reference compound], the “reduction in ear swelling” value was 46.5%.
